From ChEMBL document CHEMBL1151363, “Chemical composition and biological activity of the Tanzanian plant Ocimum suave” (1981)
Converted amounts (≈) assume the structure as drawn.

Assays:
Format in all cases: functional
Staphylococcus aureus = assay: Antimicrobial activity against Staphylococcus aureus ATCC 6538 after 48 hrs; conditions: ATCC 6538, 48 h
Micrococcus luteus = assay: Antimicrobial activity against Micrococcus luteus ATCC 9341 after 48 hrs; conditions: ATCC 9341, 48 h
Escherichia coli = assay: Antimicrobial activity against Escherichia coli UNSWO24101 after 48 hrs
Saccharomyces cerevisiae = assay: Antimicrobial activity against Saccharomyces cerevisiae UNSA Y-40 after 48 hrs

C=CCc1ccc(O)c(OC)c1 [EUGENOL]
MIC (Staphylococcus aureus): 700 µg/mL (≈ 4.26 mM) | MIC (Micrococcus luteus): 600 µg/mL (≈ 3.65 mM) | MIC (Escherichia coli): 600 µg/mL (≈ 3.65 mM) | MIC (Saccharomyces cerevisiae): 400 µg/mL (≈ 2.44 mM)
